Data: PubChem BioAssay AID330 (DTP/NCI, 2004)
Where “and” joins values, the source holds several entries; their conditions need not be identical. Identical values can stand only once. Inconclusive results and toxic doses are left out.

Tested on: P388 leukemia ip, CD2F1 mice, survival T/C
Test: NCI In Vivo Anticancer Drug Screen. Data for tumor model P388 Leukemia (intraperitoneal) in CD2F1 (CDF1) mice
Conditions: endpoint: median survival time, higher = longer survival
Summary of the method: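 Mice carrying the transplanted tumor received test compound or vehicle. Survival was recorded in each group, and the value is the treated-group measurement divided by that of the vehicle-treated control group.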

With `COc1cccc2c1C(=O)c1c(O)c3c(c(O)c1C2=O)CC(O)(C(=O)CO)CC3OC1CC(N)C(O)C(C)O1` (configuration not stated) the T/C (dose: 0.03 mg/kg/injection, schedule: Q04DX003 (ip), vehicle: other) was 104 % of control, the T/C (dose: 0.05 mg/kg/injection, schedule: Q04DX003 (ip), vehicle: other) was 104 % of control and the T/C (dose: 0.05 mg/kg/injection, schedule: Q04DX003 (ip), vehicle: saline) was 110 % of control. For the same compound, the T/C (dose: 0.08 mg/kg/injection, schedule: Q04DX003 (ip), vehicle: other) was 115 % of control, the T/C (dose: 0.1 mg/kg/injection, schedule: Q04DX003 (ip), vehicle: other) was 98 % of control and the T/C (dose: 0.12 mg/kg/injection, schedule: Q04DX003 (ip), vehicle: other) was 122 % of control. For the same compound, the T/C (dose: 0.3 mg/kg/injection, schedule: Q04DX003 (ip), vehicle: other) was 112 % of control, the T/C (dose: 0.38 mg/kg/injection, schedule: Q01DX009 (ip), vehicle: water) was 150 % of control and the T/C (dose: 0.5 mg/kg/injection, schedule: Q04DX003 (ip), vehicle: other) was 100 % of control. The T/C (dose: 0.6 mg/kg/injection, schedule: Q04DX003 (ip), vehicle: saline) was 154 % of control, the T/C (dose: 0.75 mg/kg/injection, schedule: Q01DX009 (ip), vehicle: water) was 159 % of control and the T/C (dose: 1.0 mg/kg/injection, schedule: Q04DX003 (ip), vehicle: other) was 100 % of control. The T/C (dose: 1.0 mg/kg/injection, schedule: Q04DX003 (ip), vehicle: saline) was 110 % of control and 106 % of control, the T/C (dose: 1.13 mg/kg/injection, schedule: Q04DX003 (ip), vehicle: water) was 120 % of control and the T/C (dose: 1.3 mg/kg/injection, schedule: Q04DX003 (ip), vehicle: other) was 152 % of control. The T/C (dose: 1.3 mg/kg/injection, schedule: Q04DX003 (ip), vehicle: saline) was 156 % of control, the T/C (dose: 1.5 mg/kg/injection, schedule: Q01DX009 (ip), vehicle: water) was 165 % of control and the T/C (dose: 1.56 mg/kg/injection, schedule: Q04DX003 (ip), vehicle: saline) was 163 % of control. The T/C (dose: 1.9 mg/kg/injection, schedule: Q04DX003 (ip), vehicle: other) was 153 % of control, the T/C (dose: 1.9 mg/kg/injection, schedule: Q04DX003 (ip), vehicle: saline) was 156 % of control and the T/C (dose: 2.0 mg/kg/injection, schedule: Q04DX003 (ip), vehicle: other) was 97 % of control. For the same compound, the T/C (dose: 2.0 mg/kg/injection, schedule: Q04DX003 (ip), vehicle: saline) was 113 % of control and 116 % of control, the T/C (dose: 2.25 mg/kg/injection, schedule: Q04DX003 (ip), vehicle: water) was 121 % of control and the T/C (dose: 2.8 mg/kg/injection, schedule: Q04DX003 (ip), vehicle: other) was 169 % of control. For the same compound, the T/C (dose: 2.8 mg/kg/injection, schedule: Q04DX003 (ip), vehicle: saline) was 182 % of control, the T/C (dose: 2.9 mg/kg/injection, schedule: Q01DX009 (ip), vehicle: saline) was 104 % of control and the T/C (dose: 3.0 mg/kg/injection, schedule: Q01DX009 (ip), vehicle: water) was 158 % of control. For the same compound, the T/C (dose: 3.0 mg/kg/injection, schedule: Q04DX003 (ip), vehicle: water) was 114 % of control, the T/C (dose: 3.12 mg/kg/injection, schedule: Q04DX003 (ip), vehicle: saline) was 170 % of control and the T/C (dose: 3.13 mg/kg/injection, schedule: Q01DX009 (ip), vehicle: water) was 163 % of control. The T/C (dose: 3.13 mg/kg/injection, schedule: Q04DX003 (ip), vehicle: other) was 118 % of control, the T/C (dose: 4.0 mg/kg/injection, schedule: Q04DX003 (ip), vehicle: other) was 115 % of control and the T/C (dose: 4.0 mg/kg/injection, schedule: Q04DX003 (ip), vehicle: saline) was 119 % of control. The T/C (dose: 4.2 mg/kg/injection, schedule: Q04DX003 (ip), vehicle: other) was 179 % of control, the T/C (dose: 4.2 mg/kg/injection, schedule: Q04DX003 (ip), vehicle: saline) was 180 % of control and the T/C (dose: 5.8 mg/kg/injection, schedule: Q01DX009 (ip), vehicle: saline) was 124 % of control. For the same compound, the T/C (dose: 6.0 mg/kg/injection, schedule: Q01DX009 (ip), vehicle: water) was 183 % of control, the T/C (dose: 6.25 mg/kg/injection, schedule: Q01DX009 (ip), vehicle: water) was 200 % of control and the T/C (dose: 6.25 mg/kg/injection, schedule: Q04DX003 (ip), vehicle: other) was 120 % of control. The T/C (dose: 6.25 mg/kg/injection, schedule: Q04DX003 (ip), vehicle: saline) was 170 % of control, the T/C (dose: 6.3 mg/kg/injection, schedule: Q04DX003 (ip), vehicle: other) was 179 % of control and the T/C (dose: 6.3 mg/kg/injection, schedule: Q04DX003 (ip), vehicle: saline) was 168 % of control. For the same compound, the T/C (dose: 7.5 mg/kg/injection, schedule: Q04DX003 (ip), vehicle: clinical formulation) was 161 % of control, the T/C (dose: 8.0 mg/kg/injection, schedule: Q04DX003 (ip), vehicle: saline) was 109 % of control and the T/C (dose: 9.0 mg/kg/injection, schedule: Q04DX003 (ip), vehicle: water) was 121 % of control. For the same compound, the T/C (dose: 9.5 mg/kg/injection, schedule: Q04DX003 (ip), vehicle: other) was 179 % of control, the T/C (dose: 9.5 mg/kg/injection, schedule: Q04DX003 (ip), vehicle: saline) was 208 % of control and the T/C (dose: 10.0 mg/kg/injection, schedule: Q04DX003 (ip), vehicle: water) was 112 % of control. The T/C (dose: 12.0 mg/kg/injection, schedule: Q01DX009 (ip), vehicle: water) was 204 % of control, the T/C (dose: 12.0 mg/kg/injection, schedule: Q04DX003 (ip), vehicle: water) was 116 % of control and the T/C (dose: 12.5 mg/kg/injection, schedule: Q01DX009 (ip), vehicle: water) was 229 % of control. For the same compound, the T/C (dose: 14.2 mg/kg/injection, schedule: Q04DX003 (ip), vehicle: other) was 198 % of control, the T/C (dose: 14.2 mg/kg/injection, schedule: Q04DX003 (ip), vehicle: saline) was 193 % of control and the T/C (dose: 15.0 mg/kg/injection, schedule: Q04DX003 (ip), vehicle: clinical formulation) was 152 % of control. The T/C (dose: 16.0 mg/kg/injection, schedule: Q04DX003 (ip), vehicle: saline) was 119 % of control, the T/C (dose: 21.3 mg/kg/injection, schedule: Q04DX003 (ip), vehicle: other) was 207 % of control and the T/C (dose: 21.3 mg/kg/injection, schedule: Q04DX003 (ip), vehicle: saline) was 86 % of control. For the same compound, the T/C (dose: 22.5 mg/kg/injection, schedule: Q04DX003 (ip), vehicle: water) was 109 % of control and 115 % of control, the T/C (dose: 23.4 mg/kg/injection, schedule: Q01DX009 (ip), vehicle: saline) was 123 % of control and 217 % of control and the T/C (dose: 25.0 mg/kg/injection, schedule: Q01DX009 (ip), vehicle: water) was 220 % of control. For the same compound, the T/C (dose: 25.0 mg/kg/injection, schedule: Q04DX003 (ip), vehicle: saline) was 98 % of control, the T/C (dose: 32.0 mg/kg/injection, schedule: Q04DX003 (ip), vehicle: other) was 160 % of control and the T/C (dose: 32.0 mg/kg/injection, schedule: Q04DX003 (ip), vehicle: saline) was 172 % of control. The T/C (dose: 36.0 mg/kg/injection, schedule: Q04DX003 (ip), vehicle: water) was 163 % of control, the T/C (dose: 44.0 mg/kg/injection, schedule: Q04DX003 (ip), vehicle: water) was 110 % of control and the T/C (dose: 45.0 mg/kg/injection, schedule: Q04DX003 (ip), vehicle: water) was 124 % of control. For the same compound, the T/C (dose: 48.0 mg/kg/injection, schedule: Q04DX003 (ip), vehicle: other) was 87 % of control, the T/C (dose: 48.0 mg/kg/injection, schedule: Q04DX003 (ip), vehicle: water) was 175 % of control and 294 % of control and the T/C (dose: 50.0 mg/kg/injection, schedule: Q01DX009 (ip), vehicle: water) was 117 % of control. For the same compound, the T/C (dose: 50.0 mg/kg/injection, schedule: Q04DX003 (ip), vehicle: other) was 161 % of control, the T/C (dose: 64.0 mg/kg/injection, schedule: Q04DX003 (ip), vehicle: saline) was 167 % of control and 153 % of control and the T/C (dose: 72.0 mg/kg/injection, schedule: Q04DX003 (ip), vehicle: other) was 93 % of control. For the same compound, the T/C (dose: 72.0 mg/kg/injection, schedule: Q04DX003 (ip), vehicle: water) was 196 % of control, the T/C (dose: 80.0 mg/kg/injection, schedule: Q04DX003 (ip), vehicle: water) was 118 % of control and the T/C (dose: 90.0 mg/kg/injection, schedule: Q04DX003 (ip), vehicle: water) was 159 % of control and 174 % of control. The T/C (dose: 108.0 mg/kg/injection, schedule: Q04DX003 (ip), vehicle: other) was 88 % of control, the T/C (dose: 108.0 mg/kg/injection, schedule: Q04DX003 (ip), vehicle: water) was 163 % of control and the T/C (dose: 128.0 mg/kg/injection, schedule: Q04DX003 (ip), vehicle: other) was 182 % of control. For the same compound, the T/C (dose: 128.0 mg/kg/injection, schedule: Q04DX003 (ip), vehicle: saline) was 204 % of control and 184 % of control, the T/C (dose: 160.0 mg/kg/injection, schedule: Q04DX003 (ip), vehicle: water) was 95 % of control and the T/C (dose: 180.0 mg/kg/injection, schedule: Q04DX003 (ip), vehicle: water) was 168 % of control. For the same compound, the T/C (dose: 256.0 mg/kg/injection, schedule: Q04DX003 (ip), vehicle: other) was 175 % of control, the T/C (dose: 256.0 mg/kg/injection, schedule: Q04DX003 (ip), vehicle: saline) was 110 % of control and 213 % of control and the T/C (dose: 267.0 mg/kg/injection, schedule: Q04DX003 (ip), vehicle: water) was 109 % of control. The T/C (dose: 360.0 mg/kg/injection, schedule: Q04DX003 (ip), vehicle: water) was 97 % of control, the T/C (dose: 400.0 mg/kg/injection, schedule: Q04DX003 (ip), vehicle: water) was 99 % of control and the T/C (dose: 512.0 mg/kg/injection, schedule: Q04DX003 (ip), vehicle: saline) was 90 % of control.
